These results are taken from publication PMC10720262, “Molecular determinants of cross-reactivity and potency by VH3-33 antibodies against the Plasmodium falciparum circumsporozoite protein” (Cell Reports, 2023).

Where two headings read alike, the source gives them in different places.

In experiment [1] the target is KQPA peptide ([…]). As to the kind of experiment: SPR (Carterra LSA), KQPA peptide. The format is binding, Plasmodium falciparum. The settings on record: mAb immobilized on CMD200M chip, peptide 2-fold series, top 8 μg/mL (5.03 μM), 1X HBSTE pH 7.4, 25°C, 1:1 Langmuir model, mean of best triplicate. An excerpt: (§1) Synthetic peptides were custom made by Peptide Speciality Laboratory (PSL), Heidelberg (KQPA ([…]), NPDP ([…]), DND ([…]), NDN ([…]) and NANP3 ([…])), CPC Scientific (NPNA3 ([…]), NANP6 ([…]), KQPA, NPDP and NVDP ([…])) or GenScript (KQPA, NPDP, NANP3, NDN, DND, and NANP5 ([…])). With the exception of NANP6, all other peptides were acetylated at N-termini and amidated at C-termini. NANP6 contained an N-terminal biotin-aminohexanoic acid tag and an unmodified C terminus.
(§2) In each assay, a single analyte peptide antigen (KQPA, NPDP, NVDP, NPNA3 or NANP6) was titrated against the immobilized mAbs. Using 10 mM MES buffer at pH 5.5 with 0.01% Tween 20 as running buffer, the chip was first activated by N-Hydroxysuccinimide (NHS) and 1-Ethyl-3-(3-dimethylaminopropyl) carbodiimide hydrochloride (EDC). Then, PfCSP-specific mAbs were directly immobilized (in 10 mM sodium acetate at pH 4.5) at 10 μg/mL or 5 μg/mL concentrations for 600 s, followed by quenching of unreactive esters using 1 M ethanolamine-HCl at pH 8.5. […]
(§3) The kinetics titration data collected were first pre-processed in the Kinetics (Carterra) software, including reference subtraction, buffer subtraction and data smoothing. The data were then exported and analyzed using the TitrationAnalysis tool developed in-house.[58] […] For antigens with multiple repeats of epitopes, the KD values determined includes avidity effect.

Experiment [2] deals with NPDP peptide ([…]). Nature of the experiment: SPR (Carterra LSA), NPDP peptide. The format is binding, Plasmodium falciparum. The settings on record: mAb immobilized on CMD200M chip, peptide 2-fold series, top 8 μg/mL ([…]), 1X HBSTE pH 7.4, 25°C, 1:1 Langmuir model, mean of best triplicate.
Source text: as §1, §2, §3

The target in experiment [3] is NPNA3 peptide ([…]). As to the kind of experiment: SPR (Carterra LSA), NPNA3 peptide. The format is binding, Plasmodium falciparum. Conditions: mAb immobilized on CMD200M chip, peptide 2-fold series, top 8 μg/mL (6.41 μM), 1X HBSTE pH 7.4, 25°C, 1:1 Langmuir model, mean of best triplicate.
Source text: as §1, §2, §3

The target in experiment [4] is recombinant full-length PfCSP (strain NF54). As to the kind of experiment: Biolayer interferometry (BLI) binding to recombinant PfCSP. On the set-up: species or system Plasmodium falciparum. Conditions: Octet RED96, His-tagged PfCSP 10 μg/mL on Ni-NTA biosensors, 2-fold dilutions of mAb in PBS pH 7.4/0.01% BSA/0.002% Tween 20, 1:1 binding model. The procedure: The resulting plasmid was transfected into FreeStyle HEK293F cells and GFP fluorescence was used to select for single cells via FACS. The selected single cell was expanded and cultured in GIBCO Freestyle 293 Expression Medium and maintained with 200 μg/mL of geneticin (G418 solution; Invivogen). Protein expression was enabled by subculturing the stable cells without antibiotic to a density of 8 x 10^5 cells/mL and harvested after 5–7 days.
After a steady baseline was established, biosensors were dipped into wells containing 2-fold dilutions of each mAb in kinetics buffer. Tips were then immersed back into kinetics buffer for measurement of the dissociation rate. Kinetics data were analyzed using the FortéBio’s Octet Data Analysis software 9.0.0.6, and curves were fitted to a 1:1 binding model.

In experiment [5] the test system is Pf sporozoites (traversal of HC-04 cells). As to the kind of experiment: In vitro sporozoite traversal assay. Type of experiment: cell-based, Plasmodium falciparum. Conditions: Pf NF54 sporozoites pre-incubated with diluted IgG 30 min, rhodamine dextran, 1 h at 37°C, high content imaging. The procedure: Pf NF54 asexual and sexual blood stage parasites were cultured in a semi-automated culture system as described by Ponnudurai.[69]^,[70] Sporozoites were produced by feeding Anopheles stephensi mosquitos (Sind-Kasur Nijmegen strain) using standard membrane feeding of cultured gametocytes, as was described by Feldmann.[71] Salivary glands were dissected, collected in Leibovitz L15 medium supplemented with 1% PenStrep and homogenized in a homemade glass grinder. Sporozoites were counted in a Bürker-Türk counting chamber using phase-contrast microscopy.
Human hepatoma (HC-04) cells were seeded in microtiter plates and grown to near confluence. Fresh P. falciparum salivary gland sporozoites[56] were isolated from Anopheles stephensi mosquitoes and pre-incubated with diluted IgG for 30 min before adding rhodamine dextran. Following incubation for 1 h at 37°C, cell nuclei were stained with DAPI. Fluorescence levels of traversed cells were quantitated using a high content automated imager.

Experiment [6] has as its system transgenic Plasmodium berghei sporozoites expressing PfCSP (PbPfCSP). Nature of the experiment: Liver burden reduction assay. The format is in vivo, Plasmodium berghei in C57BL/6 mice. Conditions: C57BL/6 mice, 100 μg mAb i.v., 16 h later 2,000 PbPfCSP sporozoites i.v., bioluminescence 42 h after challenge; relative to naive mice; n=5. An excerpt: P. berghei transgenic parasites expressing PfCSP, GFP and luciferase were generated as previously described.[57] Briefly, P. berghei, strain ANKA 676m1c11, which expresses GFP and luciferase were obtained from MR4 (ATCC). Parasites were transfected to replace the CSP gene with a modified gene consisting of the CSP of Pf. To obtain sporozoites, Anopheles stephensi mosquitos were fed on mice infected with the parasite. 19–22 days later salivary glands from the infected mosquitos were obtained and sporozoites were isolated to infect mice.
Parasite challenge to measure liver burden was assessed as previously described.[57] Briefly, 6-8-week-old C57BL/6 female mice were injected intravenously with 100 μg of the respective mAb. Mice were challenged 16 h later with 2,000 PfCSP-expressing transgenic Pb sporozoites delivered i.v. in HBSS-2% FBS. Mice were injected intraperitoneally with 100 μL of D-luciferin at 30 mg/mL 42 h after sporozoite challenge, anesthetized with isoflurane and imaged in the IVIS Spectrum Imaging System to measure the bioluminescence expressed by the transgenic parasite.

The target of experiment [7] is NANP3 peptide ([…]). As to the kind of experiment: SPR (Biacore T200), NANP3 peptide. The format is binding, Plasmodium falciparum. The procedure: (§4) With the exception of NANP6, all other peptides were acetylated at N-termini and amidated at C-termini. NANP6 contained an N-terminal biotin-aminohexanoic acid tag and an unmodified C terminus.
(§5) Affinity of 56 VH3-33 mAbs to DND and NANP3 peptides were measured using SPR in Biacore Cytiva T200, as described before.[21] In brief, series S sensor chip CM5 (GE Healthcare) was docked in the instrument and 10 mM HEPES (pH 7.4) containing 200 mM NaCl, 0.02% Tween 20 and 0.05% BSA was used as running buffer. Anti-human IgG from human antibody capture kit (GE Healthcare) was immobilized in both flow cells through amine coupling following manufacturer’s instructions. […] Upon stabilizing flow cells with running buffer for 20 min, indicated peptides synthesized at PSL Heidelberg were injected at 0, 0.015, 0.09, 0.55, 3.3 and 20 μM concentration at a flow rate of 30 μL/min. Association and dissociation of the peptides were measured at 25°C for 60 s and 180 s, respectively. 3M MgCl2 was used for the regeneration of both flow cells. 1:1 binding model or steady-state kinetic analysis in the Biacore T200 software V2.0 was used for fitting the data and obtaining kinetic rates and constant.

Experiment [8] concerns the target DND peptide ([…]). Nature of the experiment: SPR (Biacore T200), DND peptide. Type of experiment: binding, Plasmodium falciparum. The procedure: as §4, §5
Experiment [9] deals with KQPA peptide ([…]). As to the kind of experiment: Peptide ELISA (AUC), KQPA. Type of experiment: binding, Plasmodium falciparum. The procedure: as §4
(§6) Antigen ELISAs were performed as previously described.[21]^,[25] In brief, high-binding 384-well polystyrene plates (Corning) were coated overnight at 4°C with 2 μg/mL of the indicated peptides synthesized at PSL, Heidelberg. Plates were washed three times with 0.05% Tween 20 in PBS, blocked with 50 μL of 1% BSA in PBS for 1 h at room temperature (RT), and washed again. For analysis of mAbs, 15 μL/well of serially diluted mAbs (starting concentration 1.0 μg/mL, 1 in 4 dilution for 4 steps) were incubated for 2 h at RT. Wells were washed six times and incubated with goat anti-human IgG-HRP at a 1:1000 dilution (Jackson ImmunoResearch) in PBS with 1% BSA for 1 h. Wells were washed again and one-step ABTS substrate (RT, 20 μL/well; Roche) and 1× KPL ABTS peroxidase stop solution (RT, 20 μL/well; SeraCare Life Sciences) were used for detection. Area under the ELISA curve (AUC) was calculated using GraphPad Prism 7.04 (GraphPad).

Experiment [10] concerns NANP3 peptide ([…]). Nature of the experiment: Peptide ELISA (AUC), NANP3. Type of experiment: binding, Plasmodium falciparum. On the procedure: as §4, §6
In experiment [11] the test system is DND peptide ([…]). Nature of the experiment: Peptide ELISA (AUC), DND. Type of experiment: binding, Plasmodium falciparum. The settings on record: ELISA Area Under the Curve. The procedure: as §4, §6
The test system of experiment [12] is NDN peptide ([…]). Nature of the experiment: Peptide ELISA (AUC), NDN. Type of experiment: binding, Plasmodium falciparum. The procedure: as §4, §6
Experiment [13] relates to NPDP peptide ([…]). As to the kind of experiment: Peptide ELISA (AUC), NPDP. Type of experiment: binding, Plasmodium falciparum. Conditions: plates coated with 2 μg/mL peptide; mAb from 1.0 μg/mL, 1 in 4 dilution, 4 steps; area under ELISA curve; mean of three independent experiments. On the procedure: as §4, §6
Experiment [14] concerns the target NANP6 peptide ([…]). Nature of the experiment: SPR (Carterra LSA), NANP6 peptide. The settings on record: mAb immobilized on CMD200M chip, peptide 2-fold series, top 8 μg/mL (2.92 μM), 1X HBSTE pH 7.4, 25°C, 1:1 Langmuir model, mean of best triplicate, KD includes avidity effect for antigens with multiple repeats of epitopes. Type of experiment: binding, Plasmodium falciparum.
Source text: as §1, §2, §3

[15] abbreviates: plates coated with 2 μg/mL peptide, mAb from 1.0 μg/mL, 1 in 4 dilution, 4 steps, area under ELISA curve, mean of three independent experiments.

With “Ky311: VH3-33/Vk3-11 anti-PfCSP mAb from Kymouse platform, expressed as human IgG1; MGG4-like binding mode”, the Kd in experiment [1] stood at 427 nM; in experiment [2], 3.75 nM; in experiment [3], 1.07 nM; in [4] it was 7.39 nM. For the same substance, in [5], the “Traversal Inhibition IC50” value is 0.664 µg/mL. Further, the “Liver Burden Assay Reduction” value in [6] is 75%.

Regarding “LVQLVESGGGVVQPGRSLRLSCAASGFTFSSSGMHWVRQAPGKGLEWVAIIWYDGSNKFYADSVKGRFTISRDNSKNTLYLQMNSLRAEDTAVYYCARAYVSGSHGDKYGMDVWGQGTTVTVSS [CL-531912]”, the Kd in experiment [7] (SPR, NANP3 peptide, read-out: NANP3 KD) was 55 nM.

For “QIQLVESGGGVVQPGRSLRLSCAASGFTFSTYGMHWVRQAPGKGLEWVAVIWYDGSNKYYADSVQGRFTISRDNSKNTLYLQMNSLRAEDTAIYYCTTVGPIPFDYWGQGTLVTVSS [CL-514716]”, in experiment [8], the “DND KD (M)” value is “Non-binder”. In experiment [7] (SPR, NANP3 peptide), the “NANP3 KD (M)” value is reported as “Non-binder”.

For “QVQLVESGGGVVQPGGSLRLSCAASGFTFSGSGMHWVRHAPGKGLEWVAIIWYDGSNKFYADSVKGRFTISRDNSRNTLYLQMNSLRAEDTAVYYCARAYVSGNYGDKYGMDVWGQGTTVTVSS [CL-532151]”, in experiment [9] (ELISA Area Under the Curve, KQPA peptide), the “KQPA AUC” value turned out to be 1.36. Also, the “NANP3 AUC” value in [10] (ELISA Area Under the Curve, NANP3 peptide) is recorded as 1.84. In experiment [11], the “DND AUC” value came out at 2.23. For the same substance, in experiment [12] (ELISA Area Under the Curve, NDN peptide), the “NDN AUC” value was determined as 0.29.

Regarding “mAb CIS43: previously characterized NPDP-specific human anti-PfCSP mAb (IGHV1-3) [reference compound]”, the “ELISA AUC KQPA” value in [9] (setting [15]) is given as 0.10. Besides, the “ELISA AUC NPDP” value in experiment [13] came to 1.50. The “ELISA AUC NANP3” value in experiment [10] (setting [15]) turned out to be 0.20. For the same substance, the “ELISA AUC NDN” value in [12] (setting [15]) is 0.20. Also, the Kd in [7] (Biacore T200, mAb captured via anti-human IgG on CM5, peptide 0-20 μM, 25°C, 1:1 binding model or steady-state analysis, single measurement for sample mAbs, three independent measurements for previously characterized mAbs, read-out: SPR NANP3 KD) was determined as 1720 nM; in [2], 19.1 nM; in [3], 9430 nM; in experiment [14], 54.9 nM; in experiment [4], 15.6 nM. The “SPR KQPA KD” value in [1] is on record as “Non-binder”. Besides, the “Traversal Inhibition IC50” value in experiment [5] is on record as 0.362 µg/mL.
